Measured values: patent publication US20030203908A1, “Dihydrofolate reductase inhibitors” (priority 2000, published 2003)
Values after ≈ are worked out from the molar mass of the structure shown. Read-outs that look alike come from different tables or passages of the source.

Columns and labels:
[1] = biological target: T1, wild-type (wt) DHFR from Plasmodium falciparum (Plasmodium falciparum, UniProt P13922, N108S/R59C); assay: Inhibition of wild-type pfDHFR (spectrophotometric, Ki); format: biochemical;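 also: Affinity-purified enzyme, initial reaction rates measured across a range of inhibitor concentrations, Ki obtained by nonlinear least-squares fitting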
T1 construct: The Dihydrofolate Reductase Domain of Plasmodium falciparum Thymidylate Synthase-Dihydrofolate Reductase; made in house
T1 sequence (P13922 10-228 R59C/N108S): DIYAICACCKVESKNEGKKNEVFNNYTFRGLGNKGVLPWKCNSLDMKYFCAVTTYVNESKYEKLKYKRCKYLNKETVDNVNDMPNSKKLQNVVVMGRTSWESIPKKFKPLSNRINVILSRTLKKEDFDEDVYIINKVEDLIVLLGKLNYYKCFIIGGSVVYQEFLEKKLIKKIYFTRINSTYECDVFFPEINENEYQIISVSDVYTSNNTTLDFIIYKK
Protocol: (§2) For determination of the Ki values of a number of synthesized analogues, the assay reactions were initiated with affinity-purified enzyme (^˜0.005-0.01 U ml^−1), and the initial velocities in the presence of varying concentrations of inhibitors were analysed by non-linear least square fit using Kaleidagraph™ software.

[2] = biological target: T2, A16V.S108T mutant (mut) of DHFR from Plasmodium falciparum (Plasmodium falciparum, UniProt A7UD81, A16V/S108T); assay: biochemical
T2 construct: The Dihydrofolate Reductase Domain of Plasmodium falciparum Thymidylate Synthase-Dihydrofolate Reductase; made in house
T2 sequence (A7UD81 1-231 A16V/S108T): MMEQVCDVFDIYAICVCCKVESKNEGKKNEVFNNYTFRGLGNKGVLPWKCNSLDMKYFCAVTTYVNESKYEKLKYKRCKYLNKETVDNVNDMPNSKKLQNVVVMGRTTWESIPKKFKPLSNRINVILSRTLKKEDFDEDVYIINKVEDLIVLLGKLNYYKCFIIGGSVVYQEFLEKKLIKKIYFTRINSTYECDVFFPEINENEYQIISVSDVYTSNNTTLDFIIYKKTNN
Protocol: as §2

[3] = system: A16V.S108T mutant (mut) of DHFR from Plasmodium falciparum; assay: biochemical; conditions: resistance factor
Protocol: as §2

[4] = system: wild-type (TM4/8.2) strain of P. falciparum; assay: microbe, parasite or virus in culture; format: cell-based, Plasmodium falciparum
Protocol: (§1) Mol. Biochem. Parasitol. […] Science, 1976, 193, 673-675]. In vitro antimalarial activity was determined by using [^3H]-hypoxanthine incorporation method [Desjardins, R. E.; Canfield, C. J.; Haynes, J. D.; Chulay, J. D. Quantitative assessment of antimalarial activity in vitro by a semiautomated microdilution technique. Antimicrob Agents Chemother. 1979, 16, 710-718]. The drugs were initially dissolved in DMSO and diluted with the culture media. Aliquots (25 μl) of drug solution of different concentrations was placed in 96-well plate together with 200 μl of 1.5% cell suspension of parasitized erythrocytes containing 1-2% parasitemia. Final concentration of DMSO was 0.1% where there was no effect on the parasite growth. The mixtures were incubated in a 3% CO2 incubator at 37° C. After 24 h of incubation, 25 μl (0.25 μCi) of [^3H]-hypoxanthine were added to each well. The mixtures were further incubated under the same condition for 18-24 h. DNA of parasites was harvested onto glass filter paper (Unifilter, Packard, USA). The filters were dried and liquid scintillation fluid was added for radioactivity measurement in a 6-probe liquid scintillation-counter (Packard, USA).

[5] = system: P. falciparum 3D7 (wild-type strain); assay: In vitro inhibition of P. falciparum 3D7; format: cell-based, Plasmodium falciparum; conditions: Plasmodium falciparum, 3D7 strain, read-out: Pf-3D7 ED50
[6] = system: P. falciparum FCR3 (resistant strain containing the A16V.S108T DHFR mutant); assay: In vitro inhibition of P. falciparum FCR3; format: cell-based, Plasmodium falciparum; conditions: Plasmodium falciparum; in vitro, FCR3 strain; read-out: Pf-FCR3 ED50
[7] = system: resistant T9/94 strain of P. falciparum (A16V.S108T pfDHFR); assay: In vitro antimalarial activity, [3H]-hypoxanthine incorporation, T9/94; format: cell-based, Plasmodium falciparum; conditions: resistant strain T9/94
Protocol: as §1

[8] = biological target: T3, DHFR-TS from Trypanosoma cruzi (Trypanosoma cruzi, UniProt Q27793); assay: Inhibition of T. cruzi DHFR-TS (I50-derived Ki);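 as to all read-outs here: enzymes were recombinant T. cruzi DHFR-TS and human DHFR, both expressed in E. coli and purified on a methotrexate affinity column, with dihydrofolate and NADPH as substrates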; format: biochemical; conditions: for Selectivity: human Ki / T. cruzi Ki
T3 construct: pET 11c with the insertion of the complete ORF of the gene tc-dhfrts; made in house; host or cells: E. coli BL21 (DE3)
T3 sequence (Q27793 whole entry): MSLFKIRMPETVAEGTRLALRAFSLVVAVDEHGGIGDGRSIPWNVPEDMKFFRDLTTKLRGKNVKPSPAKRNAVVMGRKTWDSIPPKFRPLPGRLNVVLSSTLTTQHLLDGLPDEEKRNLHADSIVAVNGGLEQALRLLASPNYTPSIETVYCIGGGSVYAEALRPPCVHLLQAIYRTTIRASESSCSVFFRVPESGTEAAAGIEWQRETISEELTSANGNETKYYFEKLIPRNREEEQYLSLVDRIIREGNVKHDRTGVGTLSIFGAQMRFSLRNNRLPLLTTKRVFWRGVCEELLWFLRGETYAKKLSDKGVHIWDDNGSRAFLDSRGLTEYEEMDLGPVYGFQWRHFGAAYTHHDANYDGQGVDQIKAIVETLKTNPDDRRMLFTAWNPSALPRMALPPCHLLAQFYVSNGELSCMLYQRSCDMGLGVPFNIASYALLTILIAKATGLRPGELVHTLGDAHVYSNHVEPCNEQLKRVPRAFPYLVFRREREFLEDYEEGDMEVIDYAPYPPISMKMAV
Protocol: DHFR activity was measured spectrophotometrically by monitoring the decrease in absorbance at 340 mm.
Inhibition of dihydrofolate reductases by 1,2-dihydro-1,3,5 triazines was analysed with T. cruzi and human DHFR.
DHFR assays contained 30 mM dihydrofolate, 0.1 mM NADPH, 50 mM TES buffer pH 7, 75 mM 2-mercaptoethanol and specified amounts of inhibitors. The reaction was initiated by addition of 2.8 or 2.3 units of T. cruzi and human, respectively, and monitored at 340 nm.
Selective inhibition of dihydrofolate reductase by 1,2-dihydro-1,3,5-triazines was analysed with T. cruzi and human DHFR. DHFR assays contained 30 μM dihydrofolate, 0.1 mM NADPH, 50 mM TES buffer pH 7, 75 mM β-mercaptoethanol and specified amounts of inhibitors. The reaction was initiated by addition of 2.8 or 2.3 units of T. cruzi and human enzyme, respectively, and monitored at 340 nm.
KiI 50=[I]0.5/((1+[S])/Km)

[9] = biological target: T4, human DHFR (Homo sapiens, UniProt P00374); assay: Inhibition of human DHFR (I50-derived Ki); format: biochemical;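 also: recombinant human DHFR expressed in E. coli and purified by methotrexate affinity chromatography, enzyme activity followed spectrophotometrically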
T4 construct: made in house; host or cells: E. coli M15
T4 sequence (P00374 1-187): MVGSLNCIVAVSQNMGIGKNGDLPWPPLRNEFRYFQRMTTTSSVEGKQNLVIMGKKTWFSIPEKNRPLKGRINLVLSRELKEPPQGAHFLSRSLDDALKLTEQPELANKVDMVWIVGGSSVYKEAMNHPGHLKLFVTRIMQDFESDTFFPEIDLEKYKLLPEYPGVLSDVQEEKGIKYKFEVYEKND

[10] = biological target: human DHFR; assay: Inhibition of human DHFR (I50-derived Ki); format: biochemical;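 also: recombinant human DHFR expressed in E. coli and purified by methotrexate affinity chromatography, enzyme activity followed spectrophotometrically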
[11] = system: Plasmodium berghei; assay: In vivo activity against Plasmodium berghei in mice; conditions: P. berghei, 10 mg/kg daily x4
Protocol: These analogues were tested in vivo in a mice against Plasmodium berghei.

[12] = Plasmodium falciparum, wild-type strain TM4/8.2
[13] = A16V.S108T mutant pfDHFR, read-out: Ki(mut)
[14] = T. cruzi DHFR-TS, read-out: T. cruzi Ki (I50)

| SMILES | Ki ([1]; Ki(wt) nM) | Ki [2] | Ki(mut)/Ki(wt) [3] | IC50 [4, 12] | IC50 [5] | IC50 [6] | Ki ([1]; read-out: Ki(wt)) | Ki [2, 13] | IC50 ([4]; wild-type strain TM4/8.2) | IC50 [7] | Ki [8] | Selectivity [8] | Ki ([9]; Human Ki (I50)(nM), human DHFR) | other results |
| --- | --- | --- | --- | --- | --- | --- | --- | --- | --- | --- | --- | --- | --- | --- |
| CC(C)(C)c1ccc(Oc2cccc(C3N=C(N)N=C(N)N3c3cccc(Cl)c3)c2)cc1 (stereo not shown) [(Ib) R2=3-(4-t-butylphenoxy)phenyl] | 7.7 ± 0.5 nM | 0.0056 ± 0.0009 µM | 0.7 | 5.04 µM | > 0.3 µg/mL | 0.47 µg/mL (≈ 1.05 µM) |  |  |  |  |  |  |  |  |
| CCCOc1ccc(C2N=C(N)N=C(N)N2OCCCOc2cc(Cl)c(Cl)cc2Cl)cc1 (stereo not shown) [1-[3′-(2,4,5-trichlorophenoxy)-n-propyloxy]-2-p-n-propyloxyphenyl-4,6-diamino-1,2-dihydro-1,3,5-triazine] |  |  | 3.6 |  |  |  | 1.7 ± 0.3 nM | 0.0061 ± 0.0007 µM | 0.948 µM | 0.029 µM |  |  |  |  |
| COc1ccc(Oc2cccc(C3N=C(N)N=C(N)N3c3ccc(Cl)cc3)c2)cc1 (stereo not shown) [(Ia) R2=3-(4-methoxyphenoxyl)phenyl] | 0.7 nM | 0.0066 µM | 9.4 | 2.88 µM | 5.19 µg/mL (≈ 12.3 µM) | 1.25 µg/mL (≈ 2.96 µM) |  |  |  |  | 0.048 µM | 17 | 830 nM |  |
| NC1=NC(c2ccc(-c3ccccc3)cc2)N(c2ccc(Cl)cc2)C(N)=N1 (stereo not shown) [(Ia) R2=4-biphenyl] | 1.3 ± 0.1 nM | 0.0085 µM | 6.5 | 0.621 µM | 2.2 µg/mL (≈ 5.85 µM) | 0.68 µg/mL (≈ 1.81 µM) |  |  |  |  |  |  |  |  |
| NC1=NC(c2cccc(OCc3ccccc3)c2)N(c2cccc(COc3cc(Cl)c(Cl)cc3Cl)c2)C(N)=N1 (stereo not shown) [(Id1) R2=3-benzyloxyphenyl] |  |  | 1.1 |  |  |  | 10.3 ± 2.6 nM | 0.0117 ± 0.0032 µM | 14 µM | 1.73 µM |  | 0.73 |  | Ki [8, 14]: 0.03 µM; Ki ([9]; read-out: Human Ki (I50)): 22 nM; Ki (human)/Ki (P. falc. mut) [10]: 1.9; Ki (human)/Ki (P. falc. wt) [10]: 2.1; Ki (human)/Ki (T. cruzi) [10]: 0.7 |
| CCN(CC)CCCC(C)Nc1ccnc2cc(Cl)ccc12 (stereo not shown) [Chloroquine, reference compound] |  |  |  |  |  |  |  |  |  |  |  |  |  | Mean % infected RBC [11]: 3.58% |
| NC1=NC(c2cccc(OCc3ccccc3)c2)N(c2ccc(Cl)cc2)C(N)=N1 (stereo not shown) [(Ia) R2=m-benzyloxyphenyl] | 0.7 nM | 0.0062 µM | 8.8 | 0.832 µM | 0.18 µg/mL (≈ 0.443 µM) | 0.62 µg/mL (≈ 1.53 µM) |  |  |  |  |  |  |  |  |
| NC1=NC(c2ccc(Oc3ccccc3)cc2)N(c2ccc(Cl)cc2)C(N)=N1 (stereo not shown) [(Ia) R2=p-phenoxyphenyl, 1-p-chlorophenyl-2-p-phenoxyphenyl-4,6-diamino-1,2-dihydro-1,3,5-triazine] | 0.4 nM | 0.0038 µM | 9.5 | 0.121 µM | 0.07 µg/mL (≈ 0.179 µM) | 0.2 µg/mL (≈ 0.51 µM) |  |  |  |  | 0.003 µM | 376 | 1130 nM |  |
| CCCOc1cccc(C2N=C(N)N=C(N)N2c2cccc(/C=C/c3ccc(Cl)cc3Cl)c2)c1 (stereo not shown) [(Id2) R2=3-propyloxyphenyl] |  |  | 14.8 |  |  |  | 1.3 ± 0.3 nM | 0.0192 ± 0.0027 µM | 25.4 µM | 5.41 µM |  |  |  |  |
| NC1=NC(c2cccc(OCc3ccccc3)c2)N(c2cccc(Cl)c2)C(N)=N1 (stereo not shown) [(Ib) R2=3-benzyloxyphenyl] | 2.3 ± 0.5 nM | 0.0032 ± 0.0002 µM | 1.4 | 3.97 µM | 0.45 µg/mL (≈ 1.11 µM) | 0.019 µg/mL (≈ 0.0468 µM) |  |  |  |  | 0.012 µM | 3.8 | 46 nM |  |
| NC1=NC(c2cccc(Oc3ccc(Cl)cc3)c2)N(c2cccc(/C=C/c3ccc(Cl)cc3Cl)c2)C(N)=N1 (stereo not shown) [(Id2) R2=3-(4-chlorophenoxy)phenyl] |  |  | 0.9 |  |  |  | 219 ± 11 nM | 0.21 ± 0.018 µM | > 10 µM | > 10 µM |  |  |  |  |
| NC1=NC(c2ccc(Cl)cc2)N(c2ccc(Cl)cc2)C(N)=N1 (stereo not shown) [(Ia) R2=p-chlorophenyl] |  |  | 14.0 |  |  |  | 7.5 ± 0.9 nM | 0.105 ± 0.017 µM | 0.499 µM | 0.386 µM |  | 11 |  | Ki [8, 14]: 0.27 µM; Ki ([9]; human DHFR, read-out: Human Ki (I50)): 2960 nM; Ki (human)/Ki (P. falc. mut) [10]: 28; Ki (human)/Ki (P. falc. wt) [10]: 395; Ki (human)/Ki (T. cruzi) [10]: 11.0 |
| NC1=NC(c2cccc(OCc3ccccc3)c2)N(c2ccc(OCc3ccccc3)cc2)C(N)=N1 (stereo not shown) [R2=3-BnOC6H4, X=BnO, Y=H, 1-p-benzyloxyphenyl-2-m-benzyloxyphenyl-4,6-diamino-1,2-dihydro-1,3,5-triazine] |  |  | 4.4 |  |  |  | 1.3 ± 0.2 nM | 0.0057 ± 0.0006 µM |  | 0.255 µM |  | 8.0 |  | IC50 [4]: 3.45 µM; Ki [8, 14]: 0.04 µM; Ki ([9]; read-out: Human Ki (I50)): 319 nM; Ki (human)/Ki (P. falc. mut) [10]: 56; Ki (human)/Ki (P. falc. wt) [10]: 245; Ki (human)/Ki (T. cruzi) [10]: 8.0 |
| NC1=NC(c2cccc(Oc3ccccc3)c2)N(c2cccc(/C=C/c3ccc(Cl)cc3Cl)c2)C(N)=N1 (stereo not shown) [(Id2) R2=3-phenoxyphenyl] |  |  | 1.7 |  |  |  | 6.5 ± 0.5 nM | 0.0108 ± 0.0012 µM | 4.11 µM | 4.32 µM |  |  |  |  |
| Cl.NC1=NCN(c2ccc(Cl)cc2)C(N)=N1 [(Ia) R2=H, 1-(4′-Chlorophenyl)-4,6-diamino-1,2-dihydro-1,3,5-triazine hydrochloride] | 24.4 ± 4.3 nM | 0.649 ± 0.077 µM | 26 | 0.952 µM | 0.04 µg/mL | 0.13 µg/mL |  |  |  |  | 0.016 µM | 76 |  | Ki ([9]; Human Ki (I50)(nM)): 1210 nM; Ki (human)/Ki (P. falc. mut) [10]: 1.9; Ki (human)/Ki (P. falc. wt) [10]: 49.7; Ki (human)/Ki (T. cruzi) [10]: 75.7 |
| CC(C)(C)c1ccc(Oc2cccc(C3N=C(N)N=C(N)N3c3ccc(Cl)cc3)c2)cc1 (stereo not shown) [(Ia) R2=3-(4-t-butylphenoxy)phenyl] | 1.7 nM | 0.0099 ± 0.0015 µM | 5.8 | 4.12 µM | 0.75 µg/mL (≈ 1.67 µM) | 0.26 µg/mL (≈ 0.58 µM) |  |  |  |  | 0.112 µM | 7 | 770 nM |  |
| CCCCOc1ccc(C2N=C(N)N=C(N)N2OCCCOc2cc(Cl)c(Cl)cc2Cl)cc1 (stereo not shown) [1-[3′-(2,4,5-trichlorophenoxy)-n-propyloxy]-2-p-n-butyloxyphenyl-4,6-diamino-1,2-dihydro-1,3,5-triazine] |  |  | 2.6 |  |  |  | 3.2 ± 0.4 nM | 0.0082 ± 0.0008 µM | 1.49 µM | 0.041 µM |  |  |  |  |
| NC1=NC(c2cccc(Oc3ccccc3)c2)N(c2ccc(Cl)cc2)C(N)=N1 (stereo not shown) [(Ia) R2=m-phenoxyphenyl, 1-p-chlorophenyl-2-m-phenoxyphenyl-4,6-diamino-1,2-dihydro-1,3,5-triazine] | 0.5 nM | 0.0027 µM | 5.4 | 0.367 µM | 0.28 µg/mL (≈ 0.715 µM) | 0.32 µg/mL (≈ 0.817 µM) |  |  |  |  | 0.021 µM | 9 | 190 nM |  |
| NC1=NC(c2ccc(OCc3ccccc3)cc2)N(c2ccc(Cl)cc2)C(N)=N1 (stereo not shown) [(Ia) R2=p-benzyloxyphenyl] | 0.6 nM | 0.0044 µM | 7.3 | 0.107 µM | 0.26 µg/mL (≈ 0.641 µM) |  |  |  |  |  | 0.013 µM | 85 | 1110 nM |  |
| CCCCOc1ccc(C2N=C(N)N=C(N)N2c2ccc(Cl)cc2)cc1 (stereo not shown) [(Ia) R2=p-butyloxyphenyl, 1-p-chlorophenyl-2-p-n-butyloxyphenyl-4,6-diamino-1,2-dihydro-1,3,5-triazine] | 1 ± 0.1 nM | 0.005 µM | 5.0 | 0.287 µM | 0.14 µg/mL (≈ 0.376 µM) | 0.091 µg/mL (≈ 0.245 µM) |  |  |  |  | 0.026 µM | 15 | 400 nM | Ki (human)/Ki (P. falc. mut) [10]: 80; Ki (human)/Ki (P. falc. wt) [10]: 400; Ki (human)/Ki (T. cruzi) [10]: 15.3 |
